Measurements published in patent publication US6335019B1, “Methods for treating sensitivity to protein allergen using peptides which include a T cell epitope recognized by a T cell receptor specific for the protein allergen” (Immulogic Pharmaceutical Corp., priority 1989, dated 2002).

B1: Amb a IA(t): truncated recombinant Amb a IA, amino acid 70-398, E. coli expressed, used as crude bacterial lysate (protein)
chain: DCAQGFGKGTVGGKDGDIYTVTSELDDDVANPKEGTLRFGAAQNRPLWIIFERDMVIRLDKEMVVNSDKTIDGRGAKVEIINAGFTLNGVKNVIIHNINMHDVKVNPGGLIKSNDGPAAPRAGSDGDAISISGSSQIWIDHCSLSKSVDGLVDAKLGTTRLTVSNSLFTQHQFVLLFGAGDENIEDRGMLATVAFNTFTDNVDQRMPRCRHGFFQVVNNNYDKWGSYAIGGSASPTILSQGNRFCAPDERSKKNVLGRHGEAAAESMKWNWRTNKDVLENGAIFVASGVDPVLTPEQSAGMIPAEPGESALSLTSSAGVLSCQPGAPC

How the values were obtained:
[1] = test system: ragweed pollen-specific T cells of ragweed allergic patients; assay: Secondary and tertiary T cell proliferation assays of a panel of ragweed allergic patients with synthetic peptides; assay type: cell-based, human; conditions: for Stimulation of ragweed allergic patient T cells by synthetic peptide (in words): in vitro proliferation assays; for NUMBER POSITIVE (patients with T cell response to peptide) / POSITIVE % (patients whose T cells are stimulated by peptide): positive = T cell proliferative response greater than 2-fold above culture medium control
Protocol: (§1) Peripheral blood mononuclear cells (PBMC) were purified from 60 ml of heparinized blood from ragweed-allergic patients. PBMC were subsequently treated as described below, although in individual cases, the length of time of cultivation with IL-2 and IL-4 and the specific ragweed proteins and peptides used for stimulation varied. As an example, ten ml of patient 222 PBMC at 10^6/ml were cultured at 37° C. for 7 days in the presence of 20 micrograms aqueous ragweed pollen extract/ml RPMI-1640 supplemented with 5% pooled human AB serum. Viable cells were purified by Ficoll-Hypaque centrifugation and cultured for three weeks at 5 units recombinant human IL-2/ml and 5 units recombinant human IL-4/ml. The resting T cells were then restimulated (secondary) with 20 micrograms aqueous ragweed pollen extract/ml at a density of 2×10^5 cells/ml in the presence of X-irradiated (3500 RADS) autologous PBMC (5×10^5/ml) for three days, purified by Ficoll-Hypaque centrifugation and grown in 5 units IL-2/ml and 5 units IL-4/ml for two weeks. For assay, 2×10^4 resting secondary T cells were restimulated (tertiary) in the presence of 5×10^4 X-irradiated (3500 RADS) autologous PBMC or 2×10^4 autologous Epstein-Barr virus-transformed B cells (20,000 RADS) with various concentrations of allergen or their fragments in a volume of 200 microliters in 96-well round bottom assay plates for 3 days. Each well then received 1 microCurie tritiated (methyl) thymidine for 16 hours. The counts incorporated were collected onto glass fiber filters and processed for liquid scintillation counting. […] Antigens used: IPC aqueous pollen extract (pollen), Hollister-Stier ragweed skin test extract (RWST), ALK cat epithelium skin test extract (CST), affinity 4B5/B7 antibody purified (dialyzed) Amb a I (B7), and chromatographically purified Amb a I and (Amb a I). Medium only control is shown as a line with no symbol. Alternatively, PBMC were sometimes carried only into a secondary assay (as outlined above for a tertiary assay) with 20 micrograms aqueous pollen extract 7 days, followed by culture in 5 units IL-2/ml and 5 units IL-4/ml for 2-3 weeks. […] Secondary and tertiary assays of a panel of ragweed allergic patients were performed using synthetic peptides derived from the sequences of various ragweed pollen proteins. […] Another four peptides (RAE15.6, RAE3.D, RAE28.1, RAE26.15) which are also derived from the sequence of the same three cDNA's could stimulate 35 to 58% of the patients' T cells. One peptide (RAE4) which is derived from the cDNA of IPC Clone 5 could also stimulate 25% of the patients' T cells. […] By this method it is possible to identify novel therapeutic and diagnostics entities for use in the treatment and the diagnosis of ragweed allergy.

[2] = test system: human IgE (ragweed allergic patient sera); assay: SDS-PAGE Western blot (and ELISA) of ragweed allergic patient IgE binding to pollen, affinity purified and recombinant Amb a I / Amb a II; parameters: key to IgE binding, summarized Western blot data: −: no signal over background; +−: barely discernable over background; +: clearly positive; ++: strongly positive; +++: highly positive
Protocol: As represented in FIG. 1A, a selected monoclonal antibody (designated 4B5/B7) which recognizes an Amb a I preparation unsubjected to denaturing conditions was used to affinity purify from pollen extract a single protein, which is referred to as affinity purified Amb a I. This was carried out, using known techniques, by producing the desired monoclonal antibody, isolating it in large quantities from ascites and immobilizing it on Sepharose (Pharmacia). Aqueous pollen extract was passed over the monoclonal antibody-containing column and a protein species was eluted.
Furthermore, full-length and truncated cDNAs encoding several members of the Amb a I multigene family, as well as Amb a II, were cloned in-frame into the expression vector pTrc99 (Amann et al. Gene, 69:301-315, (1988)) and transformed into the JM109 host. Expression of recombinant Amb a I and Amb a II protein was induced by 1 mM isopropyl-β-D-thiogalactopyranoside, cells were harvested, lysozyme treated, sonicated and insoluble inclusion bodies recovered by a low speed centrifugation. Recombinant Amb a I and Amb a II protein present in the recovered pellet was solubilized in buffer containing 8M urea, 50 mM Tris HC1 pH8.0, 50 mM NaCl, 1 mM EDTA, 1 mM dithiothreitol, 1 mM phenylmethylsulfonyl fluoride. After solubilization, the crude urea lysate was dialyzed at 4° C. against PBS. […] This antigenic cross-reactivity is consistent with the observed sequence homology of the cDNAs (see FIG. 16).
Comparison of human IgE binding to recombinant Amb a I and Amb a II proteins with anti-peptide and monoclonal anti-Amb a I antibodies have provided data consistent with the conclusion that the N-terminal portion (historically referred to as the β-region) of Amb a IA includes the major IgE eptiope(s).
Affinity purified Amb a I was electrophoresed, Western transferred (Towbin et al., Proc. Natl. Acad. Sci. USA, 76:4350 (1979)) and probed with a variety of antibodies, including IgE from an allergic patient (FIG. 17). In pollen extract Amb a I is not only present as an intact 38-KD species, but also characterized by its component 26KD alpha chains and 12-KD beta chains which are formed by enzymatic cleavage. The intact 38-KD species and the alpha chain are clearly detected using rabbit anti-Amb a I, polyclonal affinity purified anti-RAE 16 and monoclonal anti-Amb a I JBIE3-4 (FIG. 17); RAE 16 peptide has the sequence RTDKDLLENGAIC derived from amino-acids […] of Amb a IB, FIG. 16). Affinity purified Amb a I (partial sequence presented in Table 1) as well as chromatographically purified Amb a II (partial sequence presented in Table 2) are bound on Western blots by these antibodies as well as by patient IgE (FIG. 17). The goat anti-Amb a I polyclonal antibody also binds multiple Amb a I and Amb a II species on a two dimensional Western blot of pollen extract (FIG. 18). The Western blot was performed as outlined below. […]

[3] = test system: T cells from patients allergic to ragweed; assay: T cell proliferation of ragweed allergic patient T cells to ragweed proteins and recombinant lysates (tritiated thymidine); assay type: cell-based, human
Source text: T cells from patients allergic to ragweed, previously stimulated with a mixed ragweed pollen extract, can recognize and proliferate in response to pollen extract, ragweed skin test reagent (RWST), affinity purified Amb a I protein and crude bacterial lysates containing recombinant Amb a I gene products IA, IB and IC (Table 4). […] The use of crude bacterial lysates as antigens precludes a firm conclusion form the negative responses, since the relative levels of recombinant proteins in lysate have not been determined.
as §1

Row | Molecule | Stimulation of ragweed allergic patient T cells by synthetic peptide (in words) [1] | NUMBER POSITIVE (patients with T cell response to peptide) [1] | POSITIVE % (patients whose T cells are stimulated by peptide) [1] | further results
1 | LNQELVVNSDKTIDGRGVK [RAE 45.15] | could not stimulate any | 0 | 0% | 
2 | LENGAIFVASGVDPVLTPEQ [RAE 28.1] |  | 17 | 52% | 
3 | GFFQVVNNNYDRWGTYA [RAE 26.15] |  | 14 | 58% | 
4 | GKADWAENRC [RAE 3.D] |  | 13 | 37% | 
5 | RTDKDLLENGAIC [RAE 16.6] | could not stimulate any | 0 | 0% | 
6 | YTVTSDKDDDVANC [RAE 15.6] |  | 7 | 35% | 
7 | FFPILGGITEVKDNDNSVDFC [RAE 4, synthetic peptide deduced from IPC Clone 5] | stimulates | 7 | 25% | Stimulation of ragweed allergic patient T cells by synthetic peptide (in words) ([1]; listed as RAE4): could be stimulated
8 | ETRRSLKTSGAYNIIDGCWRGKAD [RAE 24.E] | could not stimulate any | 0 | 0% | 
9 | B1 |  |  |  | Human IgE binding (in words) ([2]; Western blot (FIG. 17) and/or ELISA, ragweed allergic patient IgE): less well than the full-length Amb a IA; IgE binding, summarized Western blot data ([2]; patient 151): −; IgE binding, summarized Western blot data ([2]; patient 222): +−; IgE binding, summarized Western blot data ([2]; patient 291): +; IgE binding, summarized Western blot data ([2]; patient 295): +; Stimulatory response of human T cells (proliferation compared to medium control) ([3]; patient 151 2° (secondary assay)): + (2-4 fold); Stimulatory response of human T cells (proliferation compared to medium control) ([3]; patient 222 2° (secondary assay)): ++ (4-10 fold); Stimulatory response of human T cells (proliferation compared to medium control) ([3]; patient 295 2° (secondary assay)): + (2-4 fold); Stimulatory response of human T cells (proliferation compared to medium control) ([3]; patient 296 2° (secondary assay)): +++ (>10 fold); Stimulatory response of human T cells (proliferation compared to medium control) ([3]; patient 314 2° (secondary assay)): +++ (>10 fold); Stimulatory response of human T cells (proliferation compared to medium control) ([3]; patient 316 2° (secondary assay)): +++ (>10 fold); Stimulatory response of human T cells (proliferation compared to medium control) ([3]; patient 320 2° (secondary assay)): ++ (4-10 fold); Stimulatory response of human T cells (proliferation compared to medium control) ([3]; patient 321 2° (secondary assay)): ++ (4-10 fold)
